Target: APJ receptor (Homo sapiens (Human), UniProt P35414)
Test: [35S]GTPγS binding assay on membranes from CHO cells stably expressing human APJ receptor
Type: biochemical
Settings: membranes of CHO cells stably expressing human APJ receptor, means of several independent experiments, read-out: Activity hAPJ SPA EC50 IP
Protocol: The human APJ receptor was cloned by polymerase chain reaction and the gene encoding the receptor was subcloned in pFLAG-CMV™-3 expression vector (Sigma, Saint Louis, Mo. USA) in-house at Amgen. A GTPγS binding assay was performed on membranes prepared from CHO cells stably expressing human APJ receptor. The optimum experimental conditions for the concentrations of GDP, MgCl2, and NaCl in the assay buffer were initially determined. The assay was performed in assay buffer [20 mM HEPES, pH 7.5, 5 mM MgCl2, and 0.1% (w/v) BSA with 200 mM NaCl, 3 μM GDP] and membranes expressing human APJ receptor/well along with WGA PS beads. The reaction was initiated by addition of 0.2 nM [^35S]GTPγS (Perkin Elmer Life and Analytical Sciences, Waltham USA) in the absence or presence of various ligands and incubated at RT for 90 min. Nonspecific binding was determined in the presence of 100 μM GTPγS and was always less than 0.2% of total binding. All the results presented are means of several independent experiments and analyzed by non-linear regression methods using commercially available program Prism (GraphPad, San Diego, Calif.) to obtain EC50 detailed in Table 26.

Sequence of APJ receptor (P35414 whole entry): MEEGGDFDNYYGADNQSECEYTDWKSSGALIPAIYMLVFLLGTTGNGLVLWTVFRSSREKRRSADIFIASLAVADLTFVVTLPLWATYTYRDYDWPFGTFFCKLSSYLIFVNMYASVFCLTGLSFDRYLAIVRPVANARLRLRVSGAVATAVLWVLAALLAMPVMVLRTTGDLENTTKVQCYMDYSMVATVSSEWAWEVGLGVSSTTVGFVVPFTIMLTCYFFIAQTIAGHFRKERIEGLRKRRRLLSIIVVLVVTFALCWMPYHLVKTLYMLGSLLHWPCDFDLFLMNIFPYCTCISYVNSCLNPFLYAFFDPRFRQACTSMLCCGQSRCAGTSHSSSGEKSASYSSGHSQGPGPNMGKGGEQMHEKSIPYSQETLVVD

Row | SMILES | EC50
1 | COCC[C@@H](Cc1ncc(C)cn1)S(=O)(=O)Nc1nnc(-c2ccc(C)o2)n1-c1c(OC)cccc1OC (racemic) [Example 76.0, (2R)—N-(4-(2,6-dimethoxyphenyl)-5-(5-methyl-2-furanyl)-4H-1,2,4-triazol-3-yl)-4-methoxy-1-(5-methyl-2-pyrimidinyl)-2-butanesulfonamide and (2S)—N-(4-(2,6-dimethoxyphenyl)-5-(5-methyl-2-furanyl)-4H-1,2,4-triazol-3-yl)-4-methoxy-1-(5-methyl-2-pyrimidinyl)-2-butanesulfonamide] | 0.6 nM
2 | COc1cccc(OC)c1-n1c(NS(=O)(=O)[C@@H](C)Cc2ncc(F)cn2)nnc1-c1ccc(C)o1 (racemic) [Example 94.0, (2S)—N-(4-(2,6-Dimethoxyphenyl)-5-(5-methyl-2-furanyl)-4H-1,2,4-triazol-3-yl)-1-(5-fluoro-2-pyrimidinyl)-2-propanesulfonamide and (2R)—N-(4-(2,6-dimethoxyphenyl)-5-(5-methyl-2-furanyl)-4H-1,2,4-triazol-3-yl)-1-(5-fluoro-2-pyrimidinyl)-2-propanesulfonamide] | 0.17 nM
3 | COc1cccc(OC)c1-n1c(NS(=O)(=O)[C@H](C)[C@@H](O)c2ncc(F)cn2)nnc1-c1ccc(C)o1 (racemic) [Example 96.0, (1R,2S)—N-(4-(2,6-Dimethoxyphenyl)-5-(5-methyl-2-furanyl)-4H-1,2,4-triazol-3-yl)-1-(5-fluoro-2-pyrimidinyl)-1-hydroxy-2-propanesulfonamide and (1S,2R)—N-(4-(2,6-dimethoxyphenyl)-5-(5-methyl-2-furanyl)-4H-1,2,4-triazol-3-yl)-1-(5-fluoro-2-pyrimidinyl)-1-hydroxy-2-propanesulfonamide] | 0.34 nM
4 | COc1cccc(OC)c1-n1c(NS(=O)(=O)[C@@H](C)[C@H](C)c2ncc(F)cn2)nnc1-c1ccc(C)o1 (racemic) [Example 135.0] | 16 nM
5 | COc1cccc(OC)c1-n1c(NS(=O)(=O)[C@H]2COC[C@@H]2c2ncc(F)cn2)nnc1-c1ccco1 (racemic) [Example 180.0, (3R,4S)—N-(4-(2,6-Dimethoxyphenyl)-5-(2-furanyl)-4H-1,2,4-triazol-3-yl)-4-(5-fluoro-2-pyrimidinyl)tetrahydro-3-furansulfonamide and (3S,4R)—N-(4-(2,6-dimethoxyphenyl)-5-(2-furanyl)-4H-1,2,4-triazol-3-yl)-4-(5-fluoro-2-pyrimidinyl)tetrahydro-3-furansulfonamide] | 3.6 nM
6 | COc1cccc(OC)c1-n1c(NS(=O)(=O)[C@H]2COc3cc(Cl)cnc3C2)nnc1-c1ccco1 (racemic) [Example 181.0, (3R)-7-Chloro-N-(4-(2,6-dimethoxyphenyl)-5-(2-furanyl)-4H-1,2,4-triazol-3-yl)-3,4-dihydro-2H-pyrano[3,2-b]pyridine-3-sulfonamide and (3S)-7-chloro-N-(4-(2,6-dimethoxyphenyl)-5-(2-furanyl)-4H-1,2,4-triazol-3-yl)-3,4-dihydro-2H-pyrano[3,2-b]pyridine-3-sulfonamide] | 5.9 nM
7 | COc1cccc(OC)c1-n1c(NS(=O)(=O)[C@@H](C)[C@@H](C)c2ncc(F)cn2)nnc1-c1ccco1 (racemic) [Example 218.0, (2R,3R)—N-(4-(2,6-dimethoxyphenyl)-5-(2-furanyl)-4H-1,2,4-triazol-3-yl)-3-(5-fluoro-2-pyrimidinyl)-2-butanesulfonamide and (2S,3S)—N-(4-(2,6-dimethoxyphenyl)-5-(2-furanyl)-4H-1,2,4-triazol-3-yl)-3-(5-fluoro-2-pyrimidinyl)-2-butanesulfonamide] | 0.25 nM
8 | COc1cccc(OC)c1-n1c(NS(=O)(=O)[C@@H](C)Cc2ncc(F)c(C)n2)nnc1-c1ccco1 (racemic) [Example 234.0, (2S)—N-(4-(2,6-Dimethoxyphenyl)-5-(2-furanyl)-4H-1,2,4-triazol-3-yl)-1-(5-fluoro-4-methyl-2-pyrimidinyl)-2-propanesulfonamide and (2R)—N-(4-(2,6-dimethoxyphenyl)-5-(2-furanyl)-4H-1,2,4-triazol-3-yl)-1-(5-fluoro-4-methyl-2-pyrimidinyl)-2-propanesulfonamide] | 0.54 nM

Now from value to molecule:

Row | EC50 | SMILES
9 | 0.77 nM | COc1cccc(OC)c1-n1c(NS(=O)(=O)[C@@H](CCO)[C@H](C)c2ncc(C)cn2)nnc1-c1ccc(C)o1 (racemic) [Example 77.0]
10 | 18 nM | COc1cccc(OC)c1-n1c(NS(=O)(=O)[C@H](C)[C@H](O)c2oc(C)nc2C)nnc1-c1ccc(C)o1 (racemic) [Example 82.0]
11 | 0.51 nM | COc1cccc(OC)c1-n1c(NS(=O)(=O)[C@H](C)[C@@H](O)c2ccc(C#N)c(C)n2)nnc1-c1ccc(C)o1 (racemic) [Example 88.0]
12 | 0.65 nM | COc1cccc(OC)c1-n1c(NS(=O)(=O)C[C@@H](C)c2ncc(F)cn2)nnc1-c1ccc(C)o1 (racemic) [Example 127.0, (S)—N-(4-(2,6-Dimethoxyphenyl)-5-(5-methylfuran-2-yl)-4H-1,2,4-triazol-3-yl)-2-(5-fluoropyrimidin-2-yl)propane-1-sulfonamide and (R)—N-(4-(2,6-dimethoxyphenyl)-5-(5-methylfuran-2-yl)-4H-1,2,4-triazol-3-yl)-2-(5-fluoropyrimidin-2-yl)propane-1-sulfonamide]
13 | 0.24 nM | COC[C@@H]1CCCC(=O)N1C[C@H](C)S(=O)(=O)Nc1nnc(-c2ccc(C)o2)n1-c1c(OC)cccc1OC (racemic) [Example 151.0]
14 | 0.39 nM | COc1cccc(OC)c1-n1c(NS(=O)(=O)C[C@@](C)(F)c2ncc(C#N)cn2)nnc1-c1ccc(C)o1 (racemic) [Example 229.0, (2S)-2-(5-Cyano-2-pyrimidinyl)-N-(4-(2,6-dimethoxyphenyl)-5-(5-methyl-2-furanyl)-4H-1,2,4-triazol-3-yl)-2-fluoro-1-propanesulfonamide and (2R)-2-(5-cyano-2-pyrimidinyl)-N-(4-(2,6-dimethoxyphenyl)-5-(5-methyl-2-furanyl)-4H-1,2,4-triazol-3-yl)-2-fluoro-1-propanesulfonamide]
15 | 0.167 nM | COc1cccc(OC)c1-n1c(NS(=O)(=O)[C@H](C)[C@@H](OC)c2cn3ccccc3n2)nnc1-c1ccc(C)o1 (racemic) [Example 264.0, (1R,2S)—N-(4-(2,6-Dimethoxyphenyl)-5-(5-methyl-2-furanyl)-4H-1,2,4-triazol-3-yl)-1-imidazo[1,2-a]pyridin-2-yl-1-methoxy-2-propanesulfonamide and (1S,2R)—N-(4-(2,6-dimethoxyphenyl)-5-(5-methyl-2-furanyl)-4H-1,2,4-triazol-3-yl)-1-imidazo[1,2-a]pyridin-2-yl-1-methoxy-2-propanesulfonamide]
16 | 0.49 nM | COc1cccc(OC)c1-n1c(NS(=O)(=O)[C@H](C)[C@@H](O)c2cn3ccccc3n2)nnc1-c1ccc(C)o1 (racemic) [Example 269.0, (1R,2S)—N-(4-(2,6-Dimethoxyphenyl)-5-(5-methyl-2-furanyl)-4H-1,2,4-triazol-3-yl)-1-hydroxy-1-imidazo[1,2-a]pyridin-2-yl-2-propanesulfonamide and (1S,2R)—N-(4-(2,6-dimethoxyphenyl)-5-(5-methyl-2-furanyl)-4H-1,2,4-triazol-3-yl)-1-hydroxy-1-imidazo[1,2-a]pyridin-2-yl-2-propanesulfonamide]
17 | 1.4 nM | COc1cccc(OC)c1-n1c(NS(=O)(=O)[C@H](C)[C@@H](O)c2cn(C)cn2)nnc1-c1ccc(C)o1 (racemic) [Example 283.0, (1R,2S)—N-(4-(2,6-Dimethoxyphenyl)-5-(5-methyl-2-furanyl)-4H-1,2,4-triazol-3-yl)-1-hydroxy-1-(1-methyl-1H-imidazol-4-yl)-2-propanesulfonamide and (1S,2R)—N-(4-(2,6-dimethoxyphenyl)-5-(5-methyl-2-furanyl)-4H-1,2,4-triazol-3-yl)-1-hydroxy-1-(1-methyl-1H-imidazol-4-yl)-2-propanesulfonamide]
18 | 1.6 nM | COc1cccc(OC)c1-n1c(NS(=O)(=O)[C@H](C)[C@@H](O)c2coc(C)n2)nnc1-c1ccc(C)o1 (racemic) [Example 284.0, (1R,2S)—N-(4-(2,6-Dimethoxyphenyl)-5-(5-methyl-2-furanyl)-4H-1,2,4-triazol-3-yl)-1-hydroxy-1-(2-methyl-1,3-oxazol-4-yl)-2-propanesulfonamide and (1S,2R)—N-(4-(2,6-dimethoxyphenyl)-5-(5-methyl-2-furanyl)-4H-1,2,4-triazol-3-yl)-1-hydroxy-1-(2-methyl-1,3-oxazol-4-yl)-2-propanesulfonamide]
19 | 2.5 nM | COc1cccc(OC)c1-n1c(NS(=O)(=O)[C@H](C)[C@H](O)c2cn3ccccc3n2)nnc1-c1ccc(C)o1 (racemic) [Example 285.0, (1R,2R)—N-(4-(2,6-Dimethoxyphenyl)-5-(5-methyl-2-furanyl)-4H-1,2,4-triazol-3-yl)-1-hydroxy-1-imidazo[1,2-a]pyridin-2-yl-2-propanesulfonamide and (1S,2S)—N-(4-(2,6-dimethoxyphenyl)-5-(5-methyl-2-furanyl)-4H-1,2,4-triazol-3-yl)-1-hydroxy-1-imidazo[1,2-a]pyridin-2-yl-2-propanesulfonamide]
20 | 5 nM | COc1cccc(OC)c1-n1c(NS(=O)(=O)[C@H](C)[C@@H](O)c2cc3n(n2)CCCO3)nnc1-c1ccc(C)o1 (racemic) [Example 290.0]
